Assay results published in patent US5827849A, “Cyclic dericatives, pharmaceutical compositions containing these compounds and processes for preparing them” (Karl Thomae GmbH, priority 1993, dated 1998).
Where a name gives a salt, the structure may show the parent alone. Read-outs that look alike come from different tables or passages of the source.

Experiments:
Human thrombocytes = assay: Inhibition of the binding of 3H-BIBU 52 to human thrombocytes (platelets); details: 20 minutes
Protocol: 1. Inhibition of the binding of ^3 H-BIBU 52 to Human thrombocytes […] Case 5/1093-FL) and various concentrations of the test substance. The free and bound ligand are separated by centrifuging and quantitatively measured by scintillation counting. From the measurements obtained the inhibition of ^3 H-BIBU 52 binding caused by the test substance is determined. In order to do this, donor blood is taken from an anticubital vein and anti-coagulated with trisodium citrate (final concentration 13 mM). The blood is centrifuged for 10 minutes at 170×g and the supernatant platelet-rich plasma (PRP) is removed. The remaining blood is centrifuged vigorously once more in order to recover plasma. The PRP is diluted with autologous plasma 1:10. 750 μl are incubated for 20 minutes at ambient temperature with 50 μl of physiological saline solution, 100 μl of test substance solution, 50 μl of ^14 C-sucrose (3700 Bq) and 50 μl of ^3 H-BIBU 52 (final concentration: 5 nM). In order to measure the non specific binding, 5 μl of BIBU 52 (final concentration 30 μM) are used instead of the test substance. […] The pellet is dissolved in 500 μl of 0.2N NaOH, 450 μl are mixed with 2 ml of scintallator and 25 μl of 5N HCl, and measured. The residual plasma remaining in the pellet is determined from the ^14 C-content, and the bound ligand is determined from the ^3 H-measurement. After substracting the non specific binding, the pellet activity is plotted against the concentration of the test substance and the concentration for 50% inhibition of binding is determined. A. Inhibition of the binding of ^3 H-BIBU 52 to human platelets […] The free and bound ligand is separated by centrifugation and determined quantitatively by scintillation counting. The inhibition of ^3 H-BIBU 52 binding by the test substance is determined from the measurements. For this purpose, donor blood is taken from an antecubital vein and anticoagulated with trisodium citrate (final concentration 13 mM). The blood is centrifuged at 170×g for 10 minutes, and the supernatant platelet-rich plasma (PRP) is removed. The remaining blood is thoroughly centrifuged once again to obtain plasma. The PRP is diluted 1:10 with autologous plasma. […] are incubated with […] of physiological saline, […] of test substance solution, […] of ^14 C-sucrose (3700 Bq) and 50 ml of ^3 H-BIBU 52 (final concentration: 5 nM) at room temperature for 20 minutes. To measure the nonspecific binding, 5 ml of BIBU 52 (final concentration: […]) are used in place of the test substance. […] The pellet is dissolved in 500 ml of 0.2N NaOH, and 450 ml are mixed with 2 ml of scintillator and 25 ml of 5N HCl and measured. The remaining plasma still present in the pellet is determined from the ^14 C content, and the bound ligand is determined from the ^3 H measurement. After subtraction of the nonspecific binding, the activity in the pellet is plotted against the concentration of test substance, and the concentration for 50% inhibition of binding is found.

[1] = system: Thrombocyte aggregation (collagen-induced); assay: Collagen-induced platelet aggregation in platelet-rich plasma (Born and Cross method); format: cell-based; details: Homo sapiens, 10 min, 10 minutes incubation at 37° C., read-out: Inhibition of platelet aggregation EC50
Protocol: 2. Antithrombotic activity Thrombocyte aggregation is measured using the Born and Cross method (J. Physiol. 170: 397 (1964)) in platelet-rich plasma taken from healthy volunteers. To inhibit coagulation the blood is mixed with 3.14% sodium citrate in a ratio by volume of 1:10. Collagen-induced aggregation The pattern of the decrease in optical density of the platelet suspension is photometrically measured and recorded after the addition of the aggregation-triggering substance. The rate of aggregation is determined from the angle of inclination of the density curve. The point on the curve where there is maximum light transmittance is used to calculate the optical density. The amount of collagen used is as small as possible but sufficient to produce an irreversible reaction curve. Standard commercial collagen produced by Hormonchemie of Munich is used. Before the addition of the collagen the plasma is incubated for 10 minutes with the test substance at 37° C. From the measurements obtained, an EC50 is determined graphically, indicating a 50% change in the optical density in terms of the inhibition of aggregation. B. Antithrombotic effect Platelet aggregation is measured by the method of Born and Cross (J. Physiol. 170, 397 (1964)) in platelet-rich plasma from healthy test subjects. For anticoagulation, sodium citrate 3.14% is added to the blood in the ratio 1:10 by volume. Collagen-induced aggregation The course of the decrease in optical density of the platelet suspension is measured and recorded photometrically after addition of the aggregation-inducing substance. The rate of aggregation is established from the angle of inclination of the density plot. The point on the plot at which the transmission of light is a maximum is used to calculate the optical density. The amount of collagen is chosen to be as small as possible but sufficient for the reaction plot to have an irreversible course. The collagen commercially obtainable from Hormonchemie, Munich, is used. Before the addition of collagen the plasma is in each case incubated with the substance at 37° C. for 10 minutes. An EC50 which relates to a 50% change in the optical density in the sense of inhibition of aggregation is determined graphically from the measured results.

[2] = system: collagen-induced thrombocyte aggregation; assay: Inhibition of collagen-induced thrombocyte aggregation ex vivo after oral administration; format: in vivo; details: Rhesus monkeys; oral administration of 1 mg/kg
[3] = human platelets in plasma, 3H-BIBU 52 5 nM replaces 125I-fibrinogen, room temperature, read-out: Fibrinogen binding assay IC50
[4] = platelet-rich plasma from healthy test subjects, compounds of general formula XXI
[5] = human thrombocytes in plasma, 3H-BIBU 52 5 nM, ambient temperature, read-out: 3H-BIBU 52-binding test IC50
[6] = platelet-rich plasma of healthy volunteers, compounds of general formula I

| IC50 (Human thrombocytes; [3]) [nM] | IC50 (Human thrombocytes; [5]) [nM] | Structure (SMILES) | EC50 [1, 4] [nM] | EC50 [1, 6] [nM] | duration of inhibition of collagen-induced thrombocyte aggregation ex vivo [2] |
| --- | --- | --- | --- | --- | --- |
| 17 | – | CN1CCc2ccc(N3CCN([C@H]4CC[C@H](CCC(=O)O)CC4)C3=O)nc2CC1 [35 (1), 1-[trans-4-(2-Carboxyethyl)cyclohexyl]-3-(7-methyl-6,7,8,9-tetrahydro-5H-pyrido[2,3-d]azepin-2-yl)imidazolidin-2-one dihydrochloride×2H2 O] | 110 | – | – |
| – | 190 | Nc1nccc2cc(N3CCN(c4ccc(CCC(=O)O)cc4)C3=O)ccc12 [Example 1, 1-(1-Aminoisoquinolin-6-yl)-3-[4-(2-carboxyethyl)phenyl]-imidazolidin-2-one×1 water×1.2 acetic acid] | – | > 10000 | – |
| – | 5400 | O=C(O)CCc1ccc(-n2ccn(-c3ccc4cnccc4c3)c2=O)cc1 [2(1), 1-[4-(2-carboxyethyl)phenyl]-3-(isoquinolin-6-yl)-3H-imidazol-2-one] | – | > 10000 | – |
| – | 120 | CN1CCc2ccc(N3CCN([C@H]4CC[C@H](OCC(=O)O)CC4)C3=O)cc2CC1 [19(1), 1-[trans-4-[(carboxymethyl)oxy]cyclohexyl]-3-(3-methyl-2,3,4,5-tetrahydro-1H-3-benzazepin-7-yl)-imidazolidin-2-one-hydrochloride×NaCl×0.5H2 O] | – | 350 | – |
| 19 | – | CN1CCc2ncc(N3CCN([C@H]4CC[C@H](OCC(=O)O)CC4)C3=O)nc2CC1 [36 (2), 1-[trans-4-[(Carboxymethyl)oxy]cyclohexyl]-3-(7-methyl-6,7,8,9-tetrahydro-5H-pyrazino[2,3-d]azepin-2-yl)imidazolidin-2-one dihydrochloride] | 210 | – | – |
| – | 24 | O=C(O)CCc1ccc(N2CCN(c3ccc4c(c3)CCNC4)C2=O)cc1 [2(2), 1-[4-(2-carboxyethyl)phenyl]-3-(1,2,3,4-tetrahydroisoquinolin-6-yl)-imidazolidin-2-one] | – | 40 | – |
| 18 | – | CN1CCc2ncc(N3CCN(C4CCN(CCC(=O)O)CC4)C3=O)nc2CC1 [36 (3), 1-[1-(2-Carboxyethyl)piperidin-4-yl]-3-(7-methyl-6,7,8,9-tetrahydro-5H-pyrazino[2,3-d]azepin-2-yl)imidazolidin-2-one trihydrochloride] | 71 | – | – |
| – | 85 | O=C(O)CCc1ccc(N2CCN(c3ccc4c(c3)CCNCC4)C2=O)cc1 [Example 9, 1-[4-(2-Carboxyethyl)phenyl]-3-(2,3,4,5-tetrahydro-1H-3-benzazepin-7-yl)-imidazolidin-2-one] | – | 190 | – |
| 77 | – | CCN1CCc2ncc(N3CCN(c4ccc(OCC(=O)O)cc4)C3=O)nc2CC1 [36 (1), 1-[4-[(Carboxymethyl)oxy]phenyl]-3-(7-ethyl-6,7,8,9-tetrahydro-5H-pyrazino[2,3-d]azepin-2-yl)imidazolidin-2-one×1.75 HCl×H2 O] | 290 | – | – |
| 1000 | – | CCN1CCc2cnc(N3CCN(C4CCC(CCC(=O)O)CC4)C3=O)cc2CC1 (stereo not drawn) [32 (2), 1-[trans-4-(2-carboxyethyl)cyclohexyl]-3-(7-ethyl-6,7,8,9-tetrahydro-5H-pyrido[3,4-d]imidazolidin-2one] | 2300 | – | – |
| – | 760 | O=C(O)CCc1ccc(N2CCN([C@@H]3CC[C@H]4CNCC[C@@H]4C3)C2=O)cc1 (relative stereo) [9(1)] | – | 990 | – |
| 11 | – | CN1CCc2ncc(N3CCN([C@H]4CC[C@H](CCC(=O)O)CC4)C3=O)nc2CC1 [Example 32, 1-[trans-4-(2-Carboxyethyl)cyclohexyl]-3-(7-methyl-6,7,8,9-tetrahydro-5H-pyrazino[2,3-d]azepin-2-yl)imidazolidin-2-one×1 H2 O] | 100 | – | – |
| – | 110 | COC(=O)CCc1ccc(N2CCN(c3ccc4c(c3)CCNC4)C2=O)cc1 [Example 6, 1-[4-[2-(Methoxycarbonyl)ethyl]phenyl]-3-(1,2,3,4-tetrahydro-isoquinolin-6-yl)-imidazolidin-2-one-acetate] | – | 40 | – |
| 13 | – | CN1CCc2ncc(N3CC(=O)N([C@H]4CC[C@H](CCC(=O)O)CC4)C3=O)nc2CC1 [36 (12), 3-[trans-4-(2-Carboxyethyl)cyclohexyl]-1-(7-methyl-6,7,8,9-tetrahydro-5H-pyrazino[2,3-d]azepin-2-yl)-imidazolidine-2,4-dione hydrochloride] | 450 | – | – |
| 31 | – | O=C(O)CC[C@H]1CC[C@H](n2ccn(-c3cnc4c(n3)CCNCC4)c2=O)CC1 [32 (6), 1-[trans-4-(2-Carboxyethyl)cyclohexyl]-3-(6,7,8,9-tetrahydro-5H-pyrazino[2,3-d]azepin-2-yl)-3H-imidazol-2-one] | 230 | – | – |
| – | – | CC(C)COC(=O)CCc1ccc(N2CCN(c3ccc4c(c3)CCNC4)C2=O)cc1 [Example 7, 1-[4-[2-(Isobutyloxycarbonyl)ethyl]phenyl]-3-(1,2,3,4-tetrahydroisoquinolin-6-yl)-imidazolidin-2-one-hydrochloride×1 water] | – | – | more than 5 hours |
| – | 81 | CN1CCc2ccc(N3CC(=O)N([C@H]4CC[C@H](CCC(=O)O)CC4)C3=O)cc2CC1 [19(3), 3-[trans-4-(2-carboxyethyl)cyclohexyl]-1-(3-methyl-2,3,4,5-tetrahydro-1H-3-benzazepin-7-yl)-hydantoin-hydrochloride] | – | 430 | – |
| 32 | – | CCN1CCc2ncc(N3CCN(c4ccc(CCC(=O)O)cc4)C3=O)nc2CC1 [36 (10), 1-[4-(2-Carboxyethyl)phenyl]-3-(7-ethyl-6,7,8,9-tetrahydro-5-pyrazino[2,3-d]azepin-2-yl)imidazolidin-2-one×1,4 HCl×2 H2 O] | 130 | – | – |
| 250 | – | CCN1CCc2cc(N3CCN([C@H]4CC[C@H](CCC(=O)O)CC4)C3=O)cnc2CC1 [32 (1), 1-[trans-4-(2-Carboxyethyl)cyclohexyl]-3-(7-ethyl-6,7,8,9-tetrahydro-5H-pyrido[2,3-d]azepin-3-yl)imidazolidin-2-one×1 H2 O] | 310 | – | – |
| 15 | – | O=C(O)CC[C@H]1CC[C@H](N2CCN(c3ccc4c(n3)CCNCC4)C2=O)CC1 [32 (3), 1-[trans-4-(2-Carboxyethyl)cyclohexyl]-3-(6,7,8,9-tetrahydro-5H-pyrido[2,3-d]azepin-2-yl)imidazolidin-2-one] | 81 | – | – |
